These results are taken from patent US6608109B2, “Composition comprising L-arginine as a muscle growth stimulant and use thereof” (priority 1991, dated 2003).

The nature of series [1]: Oral administration of M2 to test subjects: muscle mass and bodyfat. Type of series: in vivo, human. As to the method:
The above composition (identified as M2) was administered to test subjects. Those tests and the results are described in Example 2.

Series [2] in a line: Oral administration of M2 / L-arginine to test subjects: side-effects and tolerance. The format is in vivo, human. Particulars: L-arginine taken alone on an empty stomach.
Description: The subject was placed on L-Arginine M2 therapy.

For the compound `N=C(N)NCCCC(N)C(=O)O` [L-Arginine, 2-amino-5-guanidinovaleric acid], the “Therapeutic dose for this subject” value in series [1] (subject (1)) worked out at 15 grams L-Arginine per day. Also, in series [1] (subject (2), totally empty stomach: 3+ hours), the “dose required for Growth Hormone response out of pituitary gland” value is 15-20 grams. In addition, the “disadvantages (side effects) from ingestion” value in series [2] was “headache, diarrhea, flatulence, depletion of electrolytes”.
